Measured values reported in paper PMC3445454, “Broad and Cross-Clade CD4^+ T-Cell Responses Elicited by a DNA Vaccine Encoding Highly Conserved and Promiscuous HIV-1 M-Group Consensus Peptides” (PLoS ONE, 2012).
Where two headings read alike, the source gives them in different places. Ends that are not written are not given here.

Assays:
HLA-DR DRB1*04:05 = HLA-DR DRB1*04:05 (Homo sapiens, UniProt P01903+P01911, A100R/A169T/D86S/F76Y/I96L/K127E/L162R/M171V/N62H/P40V/Q125Y/R42H/S133A/S149N/S66Y/V115G/V209L/W38E); assay: biochemical; format: binding
[1] = biological target: T1, HLA-DP DPA1*01:03/DPB1*20:01 (Homo sapiens, UniProt P04440+P20036, A65V/A84D/A85E/E86D/F38Y/G113D/G114E/G40L/I94L/L37V/M116V/P115A/R125K/T199I); assay: biochemical; format: binding
T1 sequence (P20036 29-260): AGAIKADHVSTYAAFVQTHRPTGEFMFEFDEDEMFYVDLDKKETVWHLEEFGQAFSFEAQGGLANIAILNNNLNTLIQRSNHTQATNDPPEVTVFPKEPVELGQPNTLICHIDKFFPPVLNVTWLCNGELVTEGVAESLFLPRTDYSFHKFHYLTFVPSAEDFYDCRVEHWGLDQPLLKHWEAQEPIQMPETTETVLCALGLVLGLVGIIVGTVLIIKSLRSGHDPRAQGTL
T1 sequence (P04440 30-258 L37V/F38Y/G40L/A65V/A84D/A85E/E86D/I94L/G113D/G114E/P115A/M116V/R125K/T199I/V234M): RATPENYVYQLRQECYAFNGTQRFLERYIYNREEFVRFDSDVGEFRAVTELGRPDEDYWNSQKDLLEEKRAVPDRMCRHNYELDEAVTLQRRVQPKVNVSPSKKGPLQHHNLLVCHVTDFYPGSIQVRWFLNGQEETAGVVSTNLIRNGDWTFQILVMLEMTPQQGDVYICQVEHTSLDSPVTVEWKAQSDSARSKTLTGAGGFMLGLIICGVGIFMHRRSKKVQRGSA

[2] = read-out: Binding capacity/IC50 (nM) DPA1*01:03 DPB1*20:01
[3] = read-out: Binding capacity/IC50 (nM) DRB1*04:05

Q: For CSCC[C@H](NC(=O)[C@H](CCCCN)NC(=O)[C@H](C)NC(=O)[C@H](Cc1ccc(O)cc1)NC(=O)[C@H](CCCCN)NC(=O)CNC(=O)[C@@H](NC(=O)[C@H](CCCCN)NC(=O)[C@H](CC(C)C)NC(=O)[C@H](CC(N)=O)NC(=O)[C@H](CCCCN)NC(=O)[C@H](Cc1ccccc1)NC(=O)[C@@H]1CCCN1C(=O)[C@H](CCC(=O)O)NC(=O)[C@@H](N)CCC(N)=O)[C@@H](C)O)C(N)=O [RT(343-357)], which IC50 (HLA-DR DRB1*04:05) is on record?
A: 277 nM

Q: And the IC50 [1, 2]?
A: 2790 nM

Q: How did the IC50 (HLA-DR DRB1*04:05; [3]) turn out when CC[C@H](C)[C@H](NC(=O)[C@H](CCCCN)NC(=O)[C@H](CCC(N)=O)NC(=O)[C@@H](NC(=O)[C@H](C)NC(=O)[C@H](CCC(=O)O)NC(=O)[C@@H](N)[C@@H](C)O)C(C)C)C(=O)N[C@@H](C)C(=O)N[C@H](C(=O)N[C@@H](CCC(=O)O)C(=O)N[C@@H](CO)C(=O)N[C@H](C(=O)N[C@H](C(=O)N[C@H](C(=O)N[C@@H](Cc1c[nH]c2ccccc12)C(=O)NCC(=O)N[C@@H](CCCCN)C(=O)N[C@H](C(=O)N1CCC[C@H]1C(=O)N[C@@H](CCCCN)C(=O)N[C@@H](Cc1ccccc1)C(=O)N[C@@H](CCCNC(=N)N)C(=O)N[C@@H](CC(C)C)C(N)=O)[C@@H](C)O)[C@@H](C)CC)C(C)C)[C@@H](C)CC)[C@@H](C)O [RT(369-391)] was run?
A: 2630 nM

Q: What about the IC50 [1, 2] of the same compound?
A: 972 nM

Q: What does the source list for CC(C)C[C@H](NC(=O)[C@H](CCCCN)NC(=O)[C@@H](NC(=O)[C@H](CC(C)C)NC(=O)[C@@H]1CCCN1C(=O)[C@@H]1CCCN1C(=O)[C@@H](NC(=O)[C@H](CC(N)=O)NC(=O)[C@@H](NC(=O)[C@H](Cc1ccccc1)NC(=O)[C@H](CCC(=O)O)NC(=O)[C@H](Cc1c[nH]c2ccccc12)NC(=O)[C@@H](N)CCC(=O)O)C(C)C)[C@@H](C)O)C(C)C)C(=O)N[C@@H](Cc1c[nH]c2ccccc12)C(=O)N[C@@H](Cc1ccc(O)cc1)C(N)=O [RT(413-427)]?
A: IC50 (HLA-DR DRB1*04:05): 78 nM; IC50 [1, 2]: 1070 nM

Q: Which IC50 (HLA-DR DRB1*04:05; [3]) does the source give for CC[C@H](C)[C@H](NC(=O)[C@@H]1CCCN1C(=O)[C@H](CCC(=O)O)NC(=O)[C@@H](N)CCCCN)C(=O)N[C@H](C(=O)NCC(=O)N[C@@H](C)C(=O)N[C@@H](CCC(=O)O)C(=O)N[C@H](C(=O)N[C@@H](Cc1ccccc1)C(=O)N[C@@H](Cc1ccc(O)cc1)C(=O)N[C@H](C(=O)N[C@@H](CC(=O)O)C(=O)NCC(=O)N[C@@H](C)C(N)=O)C(C)C)[C@@H](C)O)C(C)C [RT(431-445)] here?
A: 50 nM

Q: What about the IC50 [1, 2] of the same compound?
A: 26100 nM

Q: CC[C@H](C)[C@H](NC(=O)CNC(=O)[C@H](CCCCN)NC(=O)[C@H](Cc1c[nH]cn1)NC(=O)[C@H](C)NC(=O)[C@@H]1CCCN1C(=O)[C@@H](NC(=O)[C@H](Cc1c[nH]c2ccccc12)NC(=O)[C@H](CO)NC(=O)[C@H](CC(C)C)NC(=O)[C@H](Cc1ccc(O)cc1)NC(=O)[C@@H](NC(=O)[C@H](CCCCN)NC(=O)[C@H](CCC(=O)O)NC(=O)[C@@H](N)CCCCN)C(C)C)C(C)C)C(=O)NCC(=O)NCC(=O)N[C@@H](CC(N)=O)C(=O)N[C@@H](CCC(=O)O)C(N)=O [RT(528-546)] was tested. Which IC50 (HLA-DR DRB1*04:05; [3]) did it give?
A: 41 nM

Q: And the IC50 [1]?
A: 6 nM

Q: Which results are given for CC[C@H](C)[C@H](NC(=O)[C@H](Cc1ccc(O)cc1)NC(=O)CNC(=O)[C@H](CO)NC(=O)[C@H](C)NC(=O)[C@@H](NC(=O)[C@H](Cc1c[nH]cn1)NC(=O)[C@@H](NC(=O)[C@H](C)NC(=O)[C@@H](NC(=O)[C@H](CC(C)C)NC(=O)[C@@H](NC(=O)[C@@H](NC(=O)[C@H](CCCCN)NC(=O)CNC(=O)[C@@H](N)CCC(=O)O)[C@@H](C)CC)[C@@H](C)CC)C(C)C)C(C)C)C(C)C)C(=O)N[C@@H](CCC(=O)O)C(N)=O [integrase(69-85)]?
A: IC50 (HLA-DR DRB1*04:05; [3]): 430 nM; IC50 [1, 2]: 470 nM

Q: With CC[C@H](C)[C@H](NC(=O)[C@@H](NC(=O)[C@H](CCCCN)NC(=O)[C@@H](NC(=O)[C@@H]1CCCN1C(=O)[C@H](Cc1c[nH]c2ccccc12)NC(=O)[C@H](CCCNC(=N)N)NC(=O)CNC(=O)[C@H](C)NC(=O)[C@H](CC(C)C)NC(=O)[C@H](CCCCN)NC(=O)[C@H](CC(C)C)NC(=O)[C@@H](NC(=O)[C@H](Cc1ccccc1)NC(=O)[C@H](Cc1ccc(O)cc1)NC(=O)[C@H](C)NC(=O)[C@@H](NC(=O)[C@@H](N)CCC(=O)O)[C@@H](C)O)[C@@H](C)CC)C(C)C)C(C)C)C(N)=O [integrase(96-113)] as the compound, how does the IC50 (HLA-DR DRB1*04:05; [3]) read?
A: 629 nM

Q: What about the IC50 [1, 2] of the same compound?
A: 857 nM

Q: Which results are given for CC[C@H](C)[C@H](NC(=O)[C@H](CCCCN)NC(=O)[C@@H](NC(=O)[C@@H](NC(=O)[C@@H](N)CCC(N)=O)[C@@H](C)CC)[C@@H](C)O)C(=O)N[C@@H](CCC(N)=O)C(=O)N[C@@H](CC(N)=O)C(=O)N[C@@H](Cc1ccccc1)C(=O)N[C@@H](CCCNC(=N)N)C(=O)N[C@H](C(=O)N[C@@H](Cc1ccc(O)cc1)C(=O)N[C@@H](Cc1ccc(O)cc1)C(=O)N[C@@H](CCCNC(=N)N)C(=O)N[C@@H](CC(=O)O)C(=O)N[C@@H](CO)C(=O)N[C@@H](CCCNC(=N)N)C(=O)N[C@@H](CC(=O)O)C(=O)N1CCC[C@H]1C(=O)N[C@H](C(=O)N[C@@H](Cc1c[nH]c2ccccc12)C(N)=O)[C@@H](C)CC)C(C)C [integrase(216-235)]?
A: IC50 (HLA-DR DRB1*04:05; [3]): 179 nM; IC50 [1, 2]: 39 nM

Q: With CC[C@H](C)[C@H](NC(=O)[C@H](C)NC(=O)[C@H](CCCCN)NC(=O)[C@H](CCCCN)NC(=O)CNC(=O)[C@H](CS)NC(=O)[C@@H](NC(=O)[C@H](CCC(=O)O)NC(=O)[C@@H](NC(=O)[C@H](CC(C)C)NC(=O)[C@@H](NC(=O)[C@H](CCC(N)=O)NC(=O)[C@H](CC(=O)O)NC(=O)[C@H](Cc1ccc(O)cc1)NC(=O)[C@H](CCC(N)=O)NC(=O)[C@H](CCCNC(=N)N)NC(=O)[C@@H](NC(=O)[C@H](CCCCN)NC(=O)[C@@H](NC(=O)[C@@H](N)Cc1ccccc1)[C@@H](C)CC)C(C)C)[C@@H](C)CC)[C@@H](C)CC)[C@@H](C)CC)C(=O)NCC(=O)N[C@H](C(=O)N[C@H](C(N)=O)C(C)C)[C@@H](C)O [protease(53-75)] as the compound, how does the IC50 (HLA-DR DRB1*04:05) read?
A: 282 nM

Q: And the IC50 [1, 2]?
A: 19 nM

Q: Which results are given for CC[C@H](C)[C@H](NC(=O)[C@H](C)NC(=O)[C@@H](N)CCC(=O)O)C(=O)N[C@H](C(=O)N[C@@H](CCCNC(=N)N)C(=O)N[C@H](C(=O)N[C@@H](CC(C)C)C(=O)N[C@@H](CCC(N)=O)C(=O)N[C@@H](CCC(N)=O)C(=O)N[C@@H](CC(C)C)C(=O)N[C@@H](CC(C)C)C(=O)N[C@@H](Cc1ccccc1)C(=O)N[C@H](C(=O)N[C@@H](Cc1c[nH]cn1)C(=O)N[C@@H](Cc1ccccc1)C(=O)N[C@@H](CCCNC(=N)N)C(=O)N[C@H](C(=O)NCC(=O)N[C@@H](CS)C(=O)N[C@@H](CCC(N)=O)C(=O)N[C@@H](Cc1c[nH]cn1)C(=O)N[C@@H](CO)C(=O)N[C@@H](CCCNC(=N)N)C(N)=O)[C@@H](C)CC)[C@@H](C)CC)[C@@H](C)CC)[C@@H](C)CC [vpr(58-80)]?
A: IC50 (HLA-DR DRB1*04:05): 294 nM; IC50 [1]: 398 nM

Q: Which results are given for DEELLKAVRIIKILYQSNP-NH2 [rev(9-27)]?
A: IC50 (HLA-DR DRB1*04:05; [3]): 64 nM; IC50 [1, 2]: 202 nM

Q: For EAVRHFPRPWLHGL-NH2 [vpr(29-42)], which IC50 [1] is on record?
A: 31 nM

Q: Which results are given for “IRYPLTFGWCFKLVPVDPREVEEA-NH2 [nef(133-156)]”?
A: IC50 (HLA-DR DRB1*04:05; [3]): 398 nM; IC50 [1, 2]: 13000 nM

Q: What does the source list for IVALIIAIVVWTIV-NH2 [vpu(13-26)]?
A: IC50 (HLA-DR DRB1*04:05; [3]): 14900 nM; IC50 [1, 2]: 5810 nM

Q: LNKIVRMYSPVSILDI-NH2 [p24(138-153)] was tested. Which IC50 (HLA-DR DRB1*04:05; [3]) did it give?
A: 49 nM

Q: And the IC50 [1, 2]?
A: 3 nM

Q: How did the IC50 (HLA-DR DRB1*04:05; [3]) turn out when “NYPIVQNLQGQMVHQAISPR-NH2 [p17(131-132)/p24(1-18)]” was run?
A: 428 nM

Q: What about the IC50 [1, 2] of the same compound?
A: 952 nM

Q: Which IC50 (HLA-DR DRB1*04:05; [3]) does the source give for SEELRSLYNTVATLYCVHQ-NH2 [p17(72-90)] here?
A: 421 nM

Q: And the IC50 [1, 2]?
A: 2310 nM

Q: What does the source list for VGSLQYLALTALITPKK-NH2 [vif(142-158)]?
A: IC50 (HLA-DR DRB1*04:05): 2.3 nM; IC50 [1]: 262 nM

Q: What does the source list for “VVIQDNSDIKVVPRRKAKII-NH2 [integrase(249-268)]”?
A: IC50 (HLA-DR DRB1*04:05): 6080 nM; IC50 [1, 2]: 1080 nM

Q: Which results are given for YAKMRSAHTNDVKQL-NH2 [RT(354-368)]?
A: IC50 (HLA-DR DRB1*04:05; [3]): 926 nM; IC50 [1, 2]: 202 nM
